What is called IC50 is the concentration needed to halve the response being measured.

The target of this test is T1, recombinant human M1 receptor (Homo sapiens, UniProt P11229).
T1 sequence (P11229 1-460): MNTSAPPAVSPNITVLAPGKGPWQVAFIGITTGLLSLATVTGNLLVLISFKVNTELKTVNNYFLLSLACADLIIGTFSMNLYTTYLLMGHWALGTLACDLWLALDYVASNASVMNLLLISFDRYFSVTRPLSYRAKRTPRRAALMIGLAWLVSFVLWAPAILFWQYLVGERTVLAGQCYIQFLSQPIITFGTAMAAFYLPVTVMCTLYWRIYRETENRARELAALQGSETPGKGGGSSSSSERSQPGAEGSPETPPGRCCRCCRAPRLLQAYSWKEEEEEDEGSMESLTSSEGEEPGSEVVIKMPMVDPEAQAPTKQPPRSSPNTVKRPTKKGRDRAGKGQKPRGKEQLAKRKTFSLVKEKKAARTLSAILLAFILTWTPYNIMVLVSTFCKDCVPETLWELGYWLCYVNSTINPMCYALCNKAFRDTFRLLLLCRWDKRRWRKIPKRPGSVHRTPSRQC
Nature of the test: Inhibition of carbacol-induced Ca2+ mobilization in CHO-M1 cells. It counts as cell-based. The settings on record: for inhibition of carbacol induced M1 receptor activities: compound at 10 μM. In general terms: A change in cytosolic calcium serves as a functional read-out for many receptors and channels.

Consider scotanamine C [compound 3], for which the IC50 (read-out: IC50, inhibitory activity against M1 receptor) amounted to 7.8 µM.
Consider scotanamine A [compound 1], for which, for the setting “CHO-M1 cells”, the “inhibition of carbacol induced M1 receptor activities” value is on record as 35-40%.
The same measure, in the same setting: the same measure for `NCCCCNC(=O)/C=C/c1ccc(O)c(O)c1` [compound 6, cafeoylputrescine]: 35-40%.
`O=C(O)/C=C/c1ccc(O)c(O)c1` [caffeic acid, reference compound]: the “activity against M1 receptor” value (concentrations up to 10 μM, CHO-M1 cells) is “did not show any activity”.

The values are drawn from article PMC4698058 (Fitoterapia, 2015).
